System: MCP-1 Mediated Calcium Flux in THP-1 Cells
Assay: MCP-1 mediated calcium flux in THP-1 cells (FLIPR)
Assay type: cell-based, human
Settings: stimulation of THP-1 cells; from dose response curves; read-out: approximate EC50 of hMCP-1 for rise in [Ca2+]i
Description: a) MCP-1 Mediated Calcium Flux in THP-1 Cells
The human monocytic cell line THP-1 was grown in a synthetic cell culture medium RPMI 1640 supplemented with 10% foetal calf serum, 6 mM glutainine and Penicillin-Streptomycin (at 50 IU/ml penicillin, 50 μg streptomycin/ml, Gibco BRL). THP-1 cells were washed in assay buffer comprising of HBSS with Ca^2+ and Mg^2+ (without phenol red) (Gibco BRL)+20 mM HEPES+0.71 mg/ml Propenecid+2 mls/litre CaCl2 1M (BDH)+0.3 mg/ml BSA (Sigma) pH 7.4 and resuspended in the same buffer at a density of 1×10^6 cells/ml. The cells were then loaded with assay buffer+[…] FLUO-4 (molecular probes) for 40 min at 37° C., washed twice in assay buffer, and resuspended at 2×10^5 cells/ml. 100 μl of the cell suspension was added to the wells of black clear-bottomed 96 well plates, to give 2×10^4 cells/well. Cells were pelleted by centrifugation and washed with assay buffer. 100 ul of buffer+50 ul of compound was added to wells and incubated for 20 mins at (37° C.). Fluorescence was recorded using a FLIPR (FLuorometric Imaging Plate Reader—Molecular Devices). Cells were stimulated by addition of hMCP-1 to the wells.
Stimulation of THP-1 cells with hMCP-1 induced a rapid, transient rise in [Ca^2+]i in a specific and dose dependent manner. Dose response curves indicated an approximate EC50 of 4 nm. […]

For “hMCP-1: human Monocyte chemoattractant protein-1, a C—C chemokine and CCR2 ligand, used to stimulate THP-1 cells”, the EC50 was roughly 4 nM.

— patent US20080039499A1, “Chemical Compounds” (priority 2004, published 2008)
